Assay results from the OPERA property sets (Mansouri et al. 2018).
Converted amounts (≈) assume the structure as drawn.

Row | Structure (SMILES) | solubility (25 °C) [mM] | further results
1 | CC=CC(C)O (stereo not given) | 1040 (≈ 89.2 mg/mL) | –
2 | CC(Oc1ccccc1Cl)C(=O)O (stereo not given) | – | solubility (22 °C): 5.98 mM (≈ 1.2 mg/mL)
3 | COc1ccc2c(c1O)[C@]13CCN(C)[C@H](C2)[C@@H]1C=CC(=O)C3 | – | solubility (20 °C): 13.4 mM (≈ 4 mg/mL)
4 | O=C(Nc1ccccc1)c1ccccc1O | 0.258 (≈ 0.055 mg/mL) | –
5 | C=CCN(CC=C)C(=O)CCl | 113 (≈ 19.7 mg/mL) | –
6 | CC(=O)Nc1cc(NS(=O)(=O)C(F)(F)F)c(C)cc1C | – | solubility (23 °C): 0.58 mM (≈ 0.18 mg/mL)
7 | CC1CCC(C)(C)C1 (stereo not given) | 0.0332 (≈ 0.00373 mg/mL) | –
8 | CCC(O)CC | 584 (≈ 51.5 mg/mL) | –
9 | CCOc1ccccc1 | 4.66 (≈ 0.569 mg/mL) | –
10 | CN(C)CCC=C1c2ccccc2CCc2ccccc21 | – | solubility (24 °C): 0.035 mM (≈ 0.00971 mg/mL)
11 | CCCCC(C)C | 0.0253 (≈ 0.00254 mg/mL) | –
12 | COc1ccc2c(c1OC)C(=O)OC2 | 12.9 (≈ 2.5 mg/mL) | –
13 | c1ccc2c(c1)Nc1ccccc1S2 | 0.00798 (≈ 0.00159 mg/mL) | –
14 | Clc1cc(Cl)cc(Cl)c1 | 0.0331 (≈ 0.00601 mg/mL) | –
15 | COc1ccc(C=O)cc1 | 31.5 (≈ 4.29 mg/mL) | –
16 | C=C(C)c1ccccc1 | 0.982 (≈ 0.116 mg/mL) | –
17 | CC(C)C(O)C(C)C | 60.2 (≈ 7 mg/mL) | –
18 | Cc1cc(Cl)ccc1OCC(=O)O | 3.14 (≈ 0.63 mg/mL) | –
19 | Nc1ccc(S(=O)(=O)O)cc1 | – | solubility (20 °C): 62.4 mM (≈ 10.8 mg/mL)
20 | CC(CN1c2ccccc2Sc2ccccc21)N(C)C (stereo not given) | – | solubility (24 °C): 0.055 mM (≈ 0.0156 mg/mL)
21 | OCCOc1ccccc1 | – | solubility (20 °C): 193 mM (≈ 26.7 mg/mL)
22 | CN(C)[C@@H]1C(O)=C(C(N)=O)C(=O)[C@@]2(O)C(O)=C3C(=O)c4c(O)ccc(Cl)c4[C@@H](O)[C@H]3C[C@@H]12 | – | solubility (21 °C): 3.26 mM (≈ 1.52 mg/mL)
23 | CN(C)c1ccc(C(=O)O)cc1 | – | solubility: 0.4 mM (≈ 0.0661 mg/mL)
24 | CCCCCCCCCCCCCCCCCCCCCCCCCCCCCCCCCCCC | 3.35e-06 (≈ 1.7e-06 mg/mL) | –
25 | CCC(C)Cl (stereo not given) | 10.8 (≈ 1 mg/mL) | –
26 | Cc1ccc2ccc(C)nc2c1 | 11.4 (≈ 1.79 mg/mL) | –
27 | CN(C)CC/C=C1\c2ccccc2COc2ccccc21 | 0.113 (≈ 0.0316 mg/mL) | –

Row | Structure (SMILES) | solubility (25 °C) [mM] | further results
28 | O=C(O)CCc1ccccc1 | – | solubility (20 °C): 39.3 mM (≈ 5.9 mg/mL)
29 | OC[C@@H](O)[C@@H](O)CO | – | solubility (22 °C): 4990 mM (≈ 610 mg/mL)
30 | Clc1ccc(-c2ccccc2Cl)cc1Cl | – | solubility (20 °C): 0.000516 mM (≈ 0.000133 mg/mL)
31 | NCCS(=O)(=O)O | – | solubility (20 °C): 645 mM (≈ 80.7 mg/mL)
32 | c1ccsc1 | 35.8 (≈ 3.01 mg/mL) | –
33 | CCCCI | – | solubility (20 °C): 1.1 mM (≈ 0.202 mg/mL)
34 | Clc1cc(Cl)c2c(c1Cl)Oc1ccccc1O2 | 2.92e-05 (≈ 8.41e-06 mg/mL) | –
35 | Clc1ccc(-c2ccc(Cl)c(Cl)c2)cc1Cl | 1.95e-06 (≈ 5.69e-07 mg/mL) | –
36 | COc1ccc2c(c1)c(CC(=O)O)c(C)n2C(=O)/C=C/c1ccccc1 | 0.00286 (≈ 0.001 mg/mL) | –
37 | CCNc1nc(NC(C)CC)nc(OC)n1 (stereo not given) | – | solubility (20 °C): 2.71 mM (≈ 0.61 mg/mL)
38 | COc1ccc([N+](=O)[O-])cc1 | – | solubility (30 °C): 3.85 mM (≈ 0.59 mg/mL)
39 | CC(=O)CC(C)C | 190 (≈ 19 mg/mL) | –
40 | Clc1ccc(-c2ccc(Cl)c(Cl)c2Cl)cc1 | – | solubility (20 °C): 0.000133 mM (≈ 3.89e-05 mg/mL)
41 | N[C@@H](CSSC[C@H](N)C(=O)O)C(=O)O | – | solubility (20 °C): 0.791 mM (≈ 0.19 mg/mL)
42 | c1ccc2c3c(ccc2c1)-c1cccc2cccc-3c12 | – | solubility: 9.91e-06 mM (≈ 2.5e-06 mg/mL)
43 | CC#CCCCC | 1.7 (≈ 0.163 mg/mL) | –
44 | c1cnc2c(c1)ccc1cccnc12 | 14.9 (≈ 2.69 mg/mL) | –
45 | CN(C)CCCN1c2ccccc2Sc2ccccc21 | – | solubility (24 °C): 0.0499 mM (≈ 0.0142 mg/mL)
46 | O=C(O)C(=O)Nc1ccccc1 | 49.9 (≈ 8.24 mg/mL) | –
47 | CC=CCCCC | – | solubility (24 °C): 0.153 mM (≈ 0.015 mg/mL)
48 | Oc1ccc(-c2ccccc2)cc1 | 0.33 (≈ 0.0562 mg/mL) | –
49 | CNCC(=O)O | – | solubility (20 °C): 3370 mM (≈ 300 mg/mL)
50 | CC(=O)CC1CCCCN1 (stereo not given) | – | solubility (20 °C): 354 mM (≈ 50 mg/mL)
51 | CC(=O)OCCN1CCN(CCCN2c3ccccc3Sc3ccc(Cl)cc32)CC1 | – | solubility (24 °C): 0.02 mM (≈ 0.00892 mg/mL)
52 | C1CCCNCC1 | 1710 (≈ 170 mg/mL) | –
53 | CC(=O)[C@@]1(C)CC[C@H]2[C@@H]3C=C(C)C4=CC(=O)CC[C@]4(C)[C@H]3CC[C@@]21C | 0.00534 (≈ 0.00182 mg/mL) | –
54 | O=c1ccc2ccccc2o1 | – | solubility (20 °C): 13 mM (≈ 1.9 mg/mL)

Row | Structure (SMILES) | solubility (25 °C) [mM] | further results
55 | Oc1c(Cl)cc(Cl)c(Cl)c1Cc1c(O)c(Cl)cc(Cl)c1Cl | 0.344 (≈ 0.14 mg/mL) | –
56 | C[C@@H]1CN[C@@H](C)CN1 | – | solubility (20 °C): 3060 mM (≈ 350 mg/mL)
57 | Clc1ccc(-c2ccc(Cl)c(Cl)c2)c(Cl)c1 | – | solubility (20 °C): 0.000126 mM (≈ 3.68e-05 mg/mL)
58 | O=C(O)c1c2ccccc2cc2ccccc12 | – | solubility (24 °C): 0.382 mM (≈ 0.085 mg/mL)
59 | CC1CNCCN1 (stereo not given) | – | solubility (20 °C): 4340 mM (≈ 435 mg/mL)
60 | CCCCC1C(=O)N(c2ccccc2)N(c2ccc(O)cc2)C1=O (stereo not given) | – | solubility (30 °C): 0.185 mM (≈ 0.06 mg/mL)
61 | CNC(=O)N(C)c1nc2ccccc2s1 | – | solubility (20 °C): 0.267 mM (≈ 0.059 mg/mL)
62 | CC12CCC(CC1)C(C)(C)O2 | – | solubility (21 °C): 17.2 mM (≈ 2.65 mg/mL)
63 | NCC[C@H](O)C(=O)N[C@@H]1C[C@H](N)[C@@H](O[C@H]2O[C@H](CN)[C@@H](O)[C@H](O)[C@H]2O)[C@H](O)[C@H]1O[C@H]1O[C@H](CO)[C@@H](O)[C@H](N)[C@H]1O | 316 (≈ 185 mg/mL) | –
64 | CC1CCC(C(C)C)C(O)C1 (stereo not given) | 2.91 (≈ 0.455 mg/mL) | –
65 | O=S(=O)(Cl)c1ccc(I)cc1 | 0.0539 (≈ 0.0163 mg/mL) | –
66 | Cc1ccc(C)c(O)c1 | 29 (≈ 3.54 mg/mL) | –
67 | CCOC(=O)[C@H](Cc1ccc(O)cc1)NC(C)=O | – | solubility (28 °C): 13.8 mM (≈ 3.48 mg/mL)
68 | CCOC(=O)C=Cc1ccccc1 | 1.01 (≈ 0.178 mg/mL) | –
69 | C#CC(C)(C)NC(=O)c1cc(Cl)cc(Cl)c1 | 0.0586 (≈ 0.015 mg/mL) | –
70 | CCC(C)(C)c1ccc(O)cc1 | 1.02 (≈ 0.168 mg/mL) | –
71 | c1ccc2c(c1)-c1cccc3c1c-2cc1ccccc13 | – | solubility: 5.94e-06 mM (≈ 1.5e-06 mg/mL)
72 | O=S(=O)(O)CS(=O)(=O)O | 8900 (≈ 1570 mg/mL) | –
73 | CCCCCCCC=O | 4.37 (≈ 0.56 mg/mL) | –
74 | CN(C)CCN(Cc1ccccc1)c1ccccn1 | – | solubility (30 °C): 2.3 mM (≈ 0.587 mg/mL)
75 | N#CNC(=N)N | 491 (≈ 41.3 mg/mL) | –
76 | C=CCBr | 31.7 (≈ 3.83 mg/mL) | –
77 | CC(C)COC(=O)c1ccccc1C(=O)OCC(C)C | – | solubility (24 °C): 0.0223 mM (≈ 0.0062 mg/mL)
78 | C=CCc1ccc(OC)cc1 | 1.2 (≈ 0.178 mg/mL) | –
79 | Cc1ccc(S(=O)(=O)NC(=O)NN2CCCCCC2)cc1 | – | solubility (30 °C): 0.21 mM (≈ 0.0654 mg/mL)
80 | C#CCCCCCC#C | 1.04 (≈ 0.125 mg/mL) | –
